Here are results for 1 substance from PMC3025356, “Mechanism of the Ca^2+-Dependent Interaction between S100A4 and Tail Fragments of Nonmuscle Myosin Heavy Chain IIA” (Journal of Molecular Biology, 2011).

Where two headings read alike, the source gives them in different places.

Assay [1] is described as follows: Isothermal titration calorimetry of Ca^2+ binding to S100A4 constructs. On the procedure:
Fig. 2 ITC records for Ca^2+ binding to S100A4 constructs: (a) 75 μM wild type at 30 °C; (b) 75 μM wild type at 10 °C; (c) 75 μM E33Q construct at 30 °C; (d) 300 μM D63N construct at 30 °C. For mutant constructs data at 10 °C, see Fig. S1. All preparations were dialysed against the same buffer of 20 mM NaCl, 10 mM Hepes, and 2 mM DTT (pH 7.5).
ITC data were collected using a VP-ITC microcalorimeter (MicroCal Ltd., Northampton, MA) and analysed by fitting to a single-site binding equation or a two-site binding equation using MicroCal Origin software.
In general terms: In ITC the heat of successive injections is recorded.

In assay [2] the target is NM-MHC IIA rods. Particulars: 20 mM NaCl; cited from earlier work. The source says: Over the last two decades, there has been much interest in the role of the S100 Ca^2^+-binding protein family in the regulation of cellular events.[1,2] Identifying the specific targets of each of the 24 members[3] and deducing their mechanisms of action in vitro and in vivo remain to be a challenge. This is exemplified by S100A4 (also known as Mts1, metastasin, p9Ka, pEL98, calvasculin, and Fsp-1), which has been implicated in a wide range of cellular events and numerous diseases and binds to several different targets in vitro.[4–6] In particular, following early work,[7–9] there have been ma ...

Assay [3] has as its system M200 filamentous bundles. In words: Electron microscopy of myosin IIA tail fragments. On the set-up: species or system human. Particulars: two times stoichiometric S100A4, Ca^2+, 0.1 M Na-acetate. On the procedure: Fig. 8 Characterisation of myosin IIA coiled-coil tail fragments. Metal-shadowed electron micrographs of (a) M200 and (b) M111 deposited from 0.5 M ammonium acetate. Scale bar represents 50 nm. (c and d) Electron micrographs of a negatively stained M200 tail fragment. Fields of M200 (c) in the absence and (d) in the presence of a 2-fold molar excess of S100A4, respectively. Arrows point to individual strands emerging from images of filamentous bundles. The samples were prepared in 0.1 M sodium acetate buffer, where M200 formed large filamentous aggregates but were solubilised in the presence of S100A4. Scale bar represents 200 nm (see Materials and Methods for details).
For negative staining, the stock solution of the M200 tail fragment was diluted with a solution consisting of 0.1 M Na-acetate, 3 mM MgCl2, 0.1 mM CaCl2, 10 mM imidazole, and 5 mM NaH2PO4 (pH 7.0), with or without 14 μM S100A4, to give a final concentration of 7 μM M200. Following dilution, 5 μl of the mixture was applied to a grid with a thin carbon film supported by a holey carbon film, and the grid was negatively stained using 1% uranyl acetate. […] Images were recorded on a 2000 × 2000 F224HD slow-scan CCD camera (TVIPS, Gauting, Germany) at a magnification of 65,000× (0.37 nm pixel^− 1). The lengths of nonoverlapping well-shadowed molecules were measured as described by Burgess et al.[47]

Take “S100A4: recombinant S100A4 expressed in E. coli BL21(DE3)”: the “n1 (Ca^2+ per monomer)” value is listed as 0.95 ± 0.014 Ca^2+ per monomer in assay [1] (10 °C, 75 μM protein (D63N 300 μM), 20 mM NaCl, 10 mM Hepes, 2 mM DTT, pH 7.5) and 0.83 ± 0.2 Ca^2+ per monomer in assay [1] (30 °C, 75 μM protein (D63N 300 μM), 20 mM NaCl, 10 mM Hepes, 2 mM DTT, pH 7.5). Further, the “stoichiometry (discussion)” value in assay [1] (ITC) is reported as “one Ca^2+ per S100A4 monomer”. The Kd was 1.7 µM in assay [1] (first site, Ca^2+ binding, 30 °C, 75 μM protein (D63N 300 μM), 20 mM NaCl, 10 mM Hepes, 2 mM DTT, pH 7.5, read-out: K1d); 1.6 ± 0.4 µM in assay [1] (first site, 10 °C, wild type and E33Q cooperative, read-out: K1d); 1.7 µM in assay [1] (one Ca^2+ per S100A4 monomer, read-out: Kd for Ca^2+ (discussion)); 2 to 6 µM in assay [1] (read-out: Ca^2+ affinity of S100A4 dimer (discussion)); 5.7 ± 1.1 µM in assay [1] (second site, 30 °C, read-out: K2d); 6 µM in assay [1] (temperatures of ≥ 30 °C, read-out: Kd of second site (discussion)). Further, the “N2 (Ca^2+ per monomer)” value in assay [1] (second site, 30 °C) is 0.42 ± 0.27 Ca^2+ per monomer. In assay [1] (summary of Table 1), the “stoichiometry of the higher-affinity site” value is 0.8–0.9 Ca^2+ per monomer. The binding to rods entry in assay [2] is listed as “micromolar affinity”. The “M200 filamentous bundles after S100A4 addition” value in assay [3] is on record as “no trace of filamentous bundles was observed”.
